The subject of assay [1] is A2058. The assay is described as follows: Reduction of autotaxin and lysophosphatidyl choline-induced cell migration in human A2058 cells at 30 uM after 4 to 48 hrs by monolayer scratch assay. In kind it is functional. On the set-up: scale not given: the % may be the effect or the level left.
The test system of assay [2] is A2058. The assay is described as follows: Reduction of autotaxin-induced cell migration in human A2058 cells at 30 uM after 4 to 48 hrs by monolayer scratch assay. On the set-up: scale not given: the % may be the effect or the level left. Format: functional.
Assay [3] concerns A2058. Briefly: Reduction of lysophosphatidyl choline-induced cell migration in human A2058 cells at 30 uM after 4 to 48 hrs by monolayer scratch assay. Format: functional. On the set-up: scale not given: the % may be the effect or the level left.
For assay [4], the system named is A2058. The assay is described as follows: Reduction of cell migration in human A2058 cells at 30 uM after 4 to 48 hrs by monolayer scratch assay. Format: functional. On the set-up: scale not given: the % may be the effect or the level left.
Assay [5] has as its system A2058. Briefly: Cytotoxicity against human A2058 cells assessed as reduction of cell number at 30 uM after 24 hrs by MTS assay. In kind it is functional. In general terms: Tetrazolium dyes change colour on reduction, which living cells bring about.
The target of assay [6] is T1, Autotaxin (Homo sapiens, UniProt Q13822). The assay is described as follows: Inhibition of C-terminal FLAG-tagged human recombinant autotaxin using paranitrophenyl thymidine monophosphate as substrate at 10 uM measured every 2 mins by […] assay relative to control.
Assay [7] addresses T1, Autotaxin. Briefly: Competitive inhibition of C-terminal FLAG-tagged human recombinant autotaxin using synthetic substrate FS-3 by Michaelis-Menten equation analysis.
The target in assay [8] is T1, Autotaxin. The assay is described as follows: Inhibition of C-terminal FLAG-tagged human recombinant autotaxin using synthetic substrate FS-3 measured every 2 mins by FRET assay.
Assay [9] has as its target T1, Autotaxin. Briefly: Inhibition of C-terminal FLAG-tagged human recombinant autotaxin using synthetic substrate FS-3 at 10 uM measured every 2 mins by FRET assay relative to control.
Assay [10] deals with A2058. Briefly: Reduction of lysophosphatidic acid-induced cell migration in human A2058 cells at 30 uM after 4 to 48 hrs by monolayer scratch assay. In kind it is functional. On the set-up: scale not given: the % may be the effect or the level left.
Assay [11] has as its system A2058. Briefly: Cytotoxicity against human A2058 cells assessed as reduction lysophosphatidyl choline and autotaxin-induced of cell proliferation at 30 uM after 24 hrs by MTS assay. In kind it is functional. On the set-up: scale not given: the % may be the effect or the level left.
In assay [12] the test system is A2058. The assay is described as follows: Cytotoxicity against human A2058 cells assessed as reduction autotaxin-induced of cell proliferation at 30 uM after 24 hrs by MTS assay. On the set-up: scale not given: the % may be the effect or the level left. In kind it is functional.
Assay [13] concerns A2058. Briefly: Cytotoxicity against human A2058 cells assessed as reduction lysophosphatidyl choline-induced of cell proliferation at 30 uM after 24 hrs by MTS assay. Format: functional. On the set-up: scale not given: the % may be the effect or the level left.
Assay [14] relates to A2058. Briefly: Cytotoxicity against human A2058 cells assessed as reduction lysophosphatidic acid-induced of cell proliferation at 30 uM after 24 hrs by MTS assay. Format: functional. On the set-up: scale not given: the % may be the effect or the level left.

Structures are written as SMILES. Activity calls are given as the source filed them. No cut-off for these calls is given here.

Take `CC(C)c1ccc(OCC(=O)N2CCN(c3ccc(C(=O)N4CCCC4C(N)=O)cn3)CC2C)cc1` (stereo unspecified): the Activity in the assay with A2058 [1] is given as 16%; with A2058 [2] it was 19%; in the assay with A2058 [3], 35%; with A2058 [4], 43%. The outcome with A2058 [5] was inactive. The inhibition on Autotaxin [6] is 29.3%; at Autotaxin [9] it was 88.5%. Further, the Ki at Autotaxin [7] is 1600 nM. For the same compound, the IC50 on Autotaxin [8] is 1200 nM.
In the case of `CC1CN(c2ccc(C(=O)N3CCCC3C(N)=O)cn2)CCC1C(=O)COc1cccc2ccccc12` (stereo unspecified), the Activity is 25% in the assay with A2058 [1]; 34% with A2058 [2]; 24% in the assay on A2058 [3]; 30% in the assay with A2058 [10]; 39% in the assay with A2058 [4]; 27% with A2058 [11]. The Activity in the assay with A2058 [12] is listed as 36%; in the assay on A2058 [13], 36%; in the assay with A2058 [14], 44%; with A2058 [5], 49%. For the same compound, the values for the inhibition on Autotaxin [6] and on Autotaxin [9] were 10.6% and 64.7%, respectively. The Ki on Autotaxin [7] amounted to 1600 nM. The 50% inhibitory concentration (IC50) on Autotaxin [8] was 1000 nM.
As to `CC(O)C(NC(=O)c1ccc(N2CCC(CCCC3CCN(C(=O)CCC(=O)c4ccccc4)CC3)CC2)nc1)C(N)=O` (stereo unspecified), the Activity with A2058 [1] was found to be 38%; with A2058 [2], 33%; in the assay with A2058 [3] it was 28%; in the assay on A2058 [10], 22%; in the assay on A2058 [12], 30%; with A2058 [14] it was 27%. The inhibition constant (Ki) on Autotaxin [7] came to 500 nM. Moreover, the 50% inhibitory concentration (IC50) on Autotaxin [8] was determined as 900 nM. Further, the inhibition at Autotaxin [9] was determined as 87.4%.
As for `COc1cc(C2CC(=O)NC(SCC(=O)Nc3ccc(Br)cc3)=C2C#N)ccc1O` (stereo unspecified), the Activity in the assay on A2058 [1] is on record as 60%; in the assay with A2058 [2] it was 61%; with A2058 [3], 59%; in the assay with A2058 [10], 57%; with A2058 [4], 60%; in the assay with A2058 [14], 28%. Moreover, the Ki at Autotaxin [7] was found to be 9800 nM. Moreover, the half-inhibitory concentration (IC50) at Autotaxin [8] was 3800 nM. Moreover, the inhibition at Autotaxin [9] came to 68.6%.

For orientation: inhibition means the change of the read-out against control, counted positive when it falls. As a reminder, the Ki is the dissociation constant of the complex between target and ligand, obtained from inhibition or displacement. A word on the IC50: it is the concentration that inhibits the measured activity by half.

(Values after ChEMBL document CHEMBL2417420, “Autotaxin inhibition: development and application of computational tools to identify site-selective lead compounds” (Bioorg Med Chem, 2013).)
